# Measurements published in ChEMBL document CHEMBL5465560, “Selectivity Literature for EUbOPEN Chemogenomic Library” (2024).
# Tests used:
# [1] = biological target: Insulin receptor-related protein (Homo sapiens) (UniProt P14616); assay: Selectivity interaction (Ambit KINOMEscan and KiNATiv profiling in Jurkat cells) EUB0000090b INSRR; type: cell-based; settings: at 1 µM
# [2] = biological target: Polycomb protein SUZ12 (Homo sapiens) (UniProt Q15022); assay: Selectivity interaction (Methyltransferase screen (Scintillation proximity assays)) EUB0000255b SUZ12
# [3] = biological target: T1, Dual specificity tyrosine-phosphorylation-regulated kinase 2 (Homo sapiens) (UniProt Q92630); assay: Selectivity interaction (KinomeScan (DiscoverX)) EUB0001079a DYRK2; settings: at 1 µM
# T1 sequence (whole entry): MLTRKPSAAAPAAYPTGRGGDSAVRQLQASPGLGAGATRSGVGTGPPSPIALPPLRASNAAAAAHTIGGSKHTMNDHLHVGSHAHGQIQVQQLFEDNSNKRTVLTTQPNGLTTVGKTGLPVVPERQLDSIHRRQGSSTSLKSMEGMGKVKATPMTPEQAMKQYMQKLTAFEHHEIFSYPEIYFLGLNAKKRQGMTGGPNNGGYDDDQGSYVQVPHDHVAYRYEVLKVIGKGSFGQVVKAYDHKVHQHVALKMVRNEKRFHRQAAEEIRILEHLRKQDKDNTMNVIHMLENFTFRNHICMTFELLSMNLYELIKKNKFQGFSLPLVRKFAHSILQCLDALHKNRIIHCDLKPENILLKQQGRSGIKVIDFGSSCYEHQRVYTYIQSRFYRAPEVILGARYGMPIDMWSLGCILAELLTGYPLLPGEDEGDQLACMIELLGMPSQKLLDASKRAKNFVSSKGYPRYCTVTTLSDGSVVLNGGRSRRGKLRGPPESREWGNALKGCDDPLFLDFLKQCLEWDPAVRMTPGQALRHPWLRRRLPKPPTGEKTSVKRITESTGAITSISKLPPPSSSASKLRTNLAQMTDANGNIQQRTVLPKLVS
# [4] = biological target: TGF-beta receptor type-2 (Homo sapiens) (UniProt P37173); assay: Selectivity interaction (KinomeScan (DiscoverX)) EUB0000607a TGFBR2; settings: at 10 µM
# [5] = biological target: Dual specificity protein kinase CLK2 (Homo sapiens, UniProt P49760); assay: Selectivity interaction (KinomeScan (DiscoverX)) EUB0000607a CLK2; settings: at 10 µM
# [6] = biological target: Vascular endothelial growth factor receptor 3 (Homo sapiens, UniProt P35916); assay: Selectivity interaction (SelectScreen profiling (Invitrogen)) EUB0000607a FLT4; settings: at 2 µM
# [7] = biological target: Platelet-derived growth factor receptor beta (Homo sapiens, UniProt P09619); assay: Selectivity interaction (KinomeScan (DiscoverX)) EUB0001619a PDGFRB; settings: at 1 µM
# [8] = biological target: Serine/threonine-protein kinase 38 (Homo sapiens) (UniProt Q15208); assay: Selectivity interaction (KinomeScan (DiscoverX)) EUB0001619a STK38; settings: at 1 µM
# [9] = biological target: T2, Serine/threonine-protein kinase RIO1 (Homo sapiens) (UniProt Q9BRS2); assay: Selectivity interaction (Kinase panel (DSF assay)) EUB0001558a RIOK1
# T2 sequence (whole entry): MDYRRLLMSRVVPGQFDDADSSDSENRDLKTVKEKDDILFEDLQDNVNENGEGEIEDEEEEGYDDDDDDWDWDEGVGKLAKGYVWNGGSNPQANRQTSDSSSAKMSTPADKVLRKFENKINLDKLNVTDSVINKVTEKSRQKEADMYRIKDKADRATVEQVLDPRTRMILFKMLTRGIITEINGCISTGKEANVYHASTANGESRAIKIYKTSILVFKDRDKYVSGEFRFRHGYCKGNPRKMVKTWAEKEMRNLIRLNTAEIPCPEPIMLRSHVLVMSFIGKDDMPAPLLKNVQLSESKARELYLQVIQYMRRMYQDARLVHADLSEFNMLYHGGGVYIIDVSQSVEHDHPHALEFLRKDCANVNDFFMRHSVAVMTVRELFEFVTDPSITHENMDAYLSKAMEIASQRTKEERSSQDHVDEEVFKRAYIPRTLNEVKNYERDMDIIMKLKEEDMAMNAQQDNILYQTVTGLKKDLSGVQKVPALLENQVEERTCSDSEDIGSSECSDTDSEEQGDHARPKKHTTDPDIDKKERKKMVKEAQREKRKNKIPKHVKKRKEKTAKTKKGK
# [10] = biological target: Serine/threonine-protein kinase WNK1 (Homo sapiens) (UniProt Q9H4A3); assay: Selectivity interaction (Kinase panel (KiNativ target engagement assay in Jurkat cells)) EUB0001635a WNK1; type: cell-based; settings: at 1 µM
# [11] = tested on: Mast/stem cell growth factor receptor Kit (Homo sapiens), P10721 [A829P]; settings: at 10 µM
# [12] = biological target: Ribosomal protein S6 kinase alpha-2 (Homo sapiens) (UniProt Q15349); assay: Selectivity interaction (ActivX KiNativ screen (kinase selectivity in THP-1 cell lysates)) EUB0000639a RPS6KA2; type: subcellular; settings: lysate, at 5 µM
# [13] = biological target: T3, Serine/threonine-protein kinase Nek11 (Homo sapiens) (UniProt Q8NG66); assay: Selectivity interaction (KinomeScan (DiscoverX)) EUB0001049a NEK11; settings: at 1 µM
# T3 sequence (whole entry): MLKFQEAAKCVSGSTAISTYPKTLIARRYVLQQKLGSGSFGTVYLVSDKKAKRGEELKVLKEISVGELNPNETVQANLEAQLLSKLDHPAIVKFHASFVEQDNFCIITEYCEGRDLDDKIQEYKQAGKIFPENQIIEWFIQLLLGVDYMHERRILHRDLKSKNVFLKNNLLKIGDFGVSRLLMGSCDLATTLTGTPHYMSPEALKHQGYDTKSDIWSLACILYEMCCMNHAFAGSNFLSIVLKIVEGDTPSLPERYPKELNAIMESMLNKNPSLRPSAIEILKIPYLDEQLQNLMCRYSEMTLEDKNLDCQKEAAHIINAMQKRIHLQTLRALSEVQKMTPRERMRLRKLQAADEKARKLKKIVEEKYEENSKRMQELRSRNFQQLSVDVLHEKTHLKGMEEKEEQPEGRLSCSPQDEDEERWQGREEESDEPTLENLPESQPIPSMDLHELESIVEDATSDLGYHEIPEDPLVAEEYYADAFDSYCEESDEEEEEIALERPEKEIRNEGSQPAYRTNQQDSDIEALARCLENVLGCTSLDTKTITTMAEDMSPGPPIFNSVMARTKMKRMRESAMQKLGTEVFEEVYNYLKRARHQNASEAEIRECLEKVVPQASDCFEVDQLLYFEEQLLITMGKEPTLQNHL
# [14] = tested on: Epidermal growth factor receptor (Homo sapiens), P00533 [UNDEFINED MUTATION]; assay: Selectivity interaction (KinomeScan (DiscoverX)) EUB0000092b EGFR; settings: at 10 µM
# Epidermal growth factor receptor (Homo sapiens), P00533 [UNDEFINED MUTATION], sequence (P00533 whole entry, looked up, change not shown): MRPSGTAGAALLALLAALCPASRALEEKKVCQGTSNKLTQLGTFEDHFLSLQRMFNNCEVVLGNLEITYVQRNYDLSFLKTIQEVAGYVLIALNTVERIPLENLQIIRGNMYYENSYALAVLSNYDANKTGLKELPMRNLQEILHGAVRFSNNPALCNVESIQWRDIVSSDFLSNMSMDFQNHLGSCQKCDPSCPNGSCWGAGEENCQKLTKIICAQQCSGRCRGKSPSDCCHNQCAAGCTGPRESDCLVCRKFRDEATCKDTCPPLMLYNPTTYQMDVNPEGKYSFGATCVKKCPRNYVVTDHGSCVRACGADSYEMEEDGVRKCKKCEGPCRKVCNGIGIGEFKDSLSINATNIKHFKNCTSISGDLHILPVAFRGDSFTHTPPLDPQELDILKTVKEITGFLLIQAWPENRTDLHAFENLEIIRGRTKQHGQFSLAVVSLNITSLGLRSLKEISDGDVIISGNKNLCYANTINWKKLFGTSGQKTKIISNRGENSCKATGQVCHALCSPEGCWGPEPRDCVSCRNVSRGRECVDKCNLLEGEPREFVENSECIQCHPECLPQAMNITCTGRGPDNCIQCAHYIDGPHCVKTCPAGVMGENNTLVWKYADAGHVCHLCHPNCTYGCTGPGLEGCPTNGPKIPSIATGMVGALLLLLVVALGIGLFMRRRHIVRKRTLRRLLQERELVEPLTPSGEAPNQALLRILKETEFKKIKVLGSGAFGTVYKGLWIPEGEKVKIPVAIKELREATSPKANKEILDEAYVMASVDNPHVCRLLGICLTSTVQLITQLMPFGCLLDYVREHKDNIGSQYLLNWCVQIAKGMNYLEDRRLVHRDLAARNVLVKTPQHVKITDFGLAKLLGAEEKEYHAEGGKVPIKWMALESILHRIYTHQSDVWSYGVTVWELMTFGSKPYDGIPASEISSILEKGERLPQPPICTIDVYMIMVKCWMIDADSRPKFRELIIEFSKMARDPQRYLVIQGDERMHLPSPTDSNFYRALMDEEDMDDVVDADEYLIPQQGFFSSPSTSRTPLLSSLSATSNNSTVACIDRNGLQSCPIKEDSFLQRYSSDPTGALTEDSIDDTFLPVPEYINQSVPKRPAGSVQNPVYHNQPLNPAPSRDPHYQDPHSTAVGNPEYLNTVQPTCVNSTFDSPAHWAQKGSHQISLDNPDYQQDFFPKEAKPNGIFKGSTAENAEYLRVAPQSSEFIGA
# Serine/threonine-protein kinase WNK1 (Homo sapiens), sequence (Q9H4A3 whole entry, looked up): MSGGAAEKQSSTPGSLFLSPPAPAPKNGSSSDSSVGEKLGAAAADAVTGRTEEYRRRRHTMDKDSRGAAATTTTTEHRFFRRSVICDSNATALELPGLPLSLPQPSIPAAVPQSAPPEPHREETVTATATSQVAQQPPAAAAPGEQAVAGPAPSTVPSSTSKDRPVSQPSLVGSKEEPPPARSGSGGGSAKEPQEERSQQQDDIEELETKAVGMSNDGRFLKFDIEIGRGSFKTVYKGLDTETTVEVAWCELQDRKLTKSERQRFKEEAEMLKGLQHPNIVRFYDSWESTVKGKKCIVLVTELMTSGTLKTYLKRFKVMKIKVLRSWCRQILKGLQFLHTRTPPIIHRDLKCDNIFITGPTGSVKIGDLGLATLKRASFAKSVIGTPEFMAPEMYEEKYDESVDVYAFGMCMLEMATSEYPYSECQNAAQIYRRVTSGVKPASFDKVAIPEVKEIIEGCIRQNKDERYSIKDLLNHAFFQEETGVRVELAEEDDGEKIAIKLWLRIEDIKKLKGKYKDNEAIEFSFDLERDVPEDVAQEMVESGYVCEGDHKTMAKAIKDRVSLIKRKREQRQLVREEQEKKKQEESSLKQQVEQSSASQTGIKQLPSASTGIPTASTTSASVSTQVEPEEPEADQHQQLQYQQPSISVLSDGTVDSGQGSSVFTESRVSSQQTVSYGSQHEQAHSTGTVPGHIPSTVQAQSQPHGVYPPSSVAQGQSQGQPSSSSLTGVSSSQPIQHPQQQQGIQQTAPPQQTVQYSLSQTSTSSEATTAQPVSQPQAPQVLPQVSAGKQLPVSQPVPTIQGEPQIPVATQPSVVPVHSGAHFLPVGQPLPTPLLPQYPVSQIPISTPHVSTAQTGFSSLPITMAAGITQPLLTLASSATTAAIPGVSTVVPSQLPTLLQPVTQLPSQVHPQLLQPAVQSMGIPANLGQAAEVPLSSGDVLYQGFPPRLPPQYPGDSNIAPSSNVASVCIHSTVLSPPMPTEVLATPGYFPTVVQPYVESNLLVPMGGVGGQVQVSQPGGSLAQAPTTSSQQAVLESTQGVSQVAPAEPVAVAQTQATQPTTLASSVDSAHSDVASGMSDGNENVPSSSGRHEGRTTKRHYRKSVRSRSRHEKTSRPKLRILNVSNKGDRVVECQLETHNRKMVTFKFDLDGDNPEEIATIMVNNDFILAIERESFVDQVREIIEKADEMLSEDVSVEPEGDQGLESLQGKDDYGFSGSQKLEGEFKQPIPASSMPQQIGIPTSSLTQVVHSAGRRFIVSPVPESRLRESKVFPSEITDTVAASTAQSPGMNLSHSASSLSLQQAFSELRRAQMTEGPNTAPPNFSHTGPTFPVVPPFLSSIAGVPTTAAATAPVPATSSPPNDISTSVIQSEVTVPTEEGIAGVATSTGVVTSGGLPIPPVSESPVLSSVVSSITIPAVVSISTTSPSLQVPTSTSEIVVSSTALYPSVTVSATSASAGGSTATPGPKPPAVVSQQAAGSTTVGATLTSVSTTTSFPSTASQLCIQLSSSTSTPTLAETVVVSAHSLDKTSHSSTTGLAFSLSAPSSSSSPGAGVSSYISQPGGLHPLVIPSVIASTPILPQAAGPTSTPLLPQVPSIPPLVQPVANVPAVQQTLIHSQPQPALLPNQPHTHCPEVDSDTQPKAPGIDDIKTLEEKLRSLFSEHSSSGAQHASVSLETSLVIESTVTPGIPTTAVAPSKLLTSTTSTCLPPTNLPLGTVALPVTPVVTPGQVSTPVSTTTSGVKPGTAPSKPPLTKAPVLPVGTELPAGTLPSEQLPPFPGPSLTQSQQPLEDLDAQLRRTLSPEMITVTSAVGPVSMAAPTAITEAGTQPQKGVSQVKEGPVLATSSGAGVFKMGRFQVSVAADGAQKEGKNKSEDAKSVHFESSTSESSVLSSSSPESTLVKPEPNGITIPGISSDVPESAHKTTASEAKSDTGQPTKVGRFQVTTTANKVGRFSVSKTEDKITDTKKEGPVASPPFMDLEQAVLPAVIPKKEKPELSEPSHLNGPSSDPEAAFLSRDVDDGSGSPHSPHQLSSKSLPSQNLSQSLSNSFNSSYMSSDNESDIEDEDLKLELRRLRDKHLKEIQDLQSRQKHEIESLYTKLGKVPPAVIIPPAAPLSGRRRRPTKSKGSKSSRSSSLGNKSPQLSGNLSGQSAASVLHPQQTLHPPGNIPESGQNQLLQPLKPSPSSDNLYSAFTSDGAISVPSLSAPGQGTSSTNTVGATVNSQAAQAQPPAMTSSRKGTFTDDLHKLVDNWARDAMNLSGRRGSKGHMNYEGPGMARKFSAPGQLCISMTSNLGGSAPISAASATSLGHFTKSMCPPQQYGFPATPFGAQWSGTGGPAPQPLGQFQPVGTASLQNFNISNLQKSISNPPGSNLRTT
# Polycomb protein SUZ12 (Homo sapiens), sequence (Q15022 whole entry): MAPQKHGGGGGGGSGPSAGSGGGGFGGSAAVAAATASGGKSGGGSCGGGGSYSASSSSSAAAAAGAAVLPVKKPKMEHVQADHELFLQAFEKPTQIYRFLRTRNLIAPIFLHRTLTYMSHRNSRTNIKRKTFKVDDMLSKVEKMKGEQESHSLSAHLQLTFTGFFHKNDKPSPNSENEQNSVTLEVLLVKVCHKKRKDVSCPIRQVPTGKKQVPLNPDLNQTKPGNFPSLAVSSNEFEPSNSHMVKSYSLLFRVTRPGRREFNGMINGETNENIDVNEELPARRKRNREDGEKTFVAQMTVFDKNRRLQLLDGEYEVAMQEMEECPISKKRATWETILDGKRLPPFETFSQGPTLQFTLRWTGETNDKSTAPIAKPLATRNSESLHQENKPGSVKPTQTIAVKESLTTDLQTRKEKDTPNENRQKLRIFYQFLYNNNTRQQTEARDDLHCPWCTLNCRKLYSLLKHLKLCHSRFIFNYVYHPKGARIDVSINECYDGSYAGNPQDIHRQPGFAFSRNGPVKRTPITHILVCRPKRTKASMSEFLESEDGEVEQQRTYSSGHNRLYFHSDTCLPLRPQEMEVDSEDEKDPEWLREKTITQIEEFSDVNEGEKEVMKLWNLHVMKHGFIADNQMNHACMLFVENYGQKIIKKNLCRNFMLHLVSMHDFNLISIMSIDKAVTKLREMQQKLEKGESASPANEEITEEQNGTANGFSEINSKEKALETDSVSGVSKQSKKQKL
# Ribosomal protein S6 kinase alpha-2 (Homo sapiens), sequence (Q15349 whole entry): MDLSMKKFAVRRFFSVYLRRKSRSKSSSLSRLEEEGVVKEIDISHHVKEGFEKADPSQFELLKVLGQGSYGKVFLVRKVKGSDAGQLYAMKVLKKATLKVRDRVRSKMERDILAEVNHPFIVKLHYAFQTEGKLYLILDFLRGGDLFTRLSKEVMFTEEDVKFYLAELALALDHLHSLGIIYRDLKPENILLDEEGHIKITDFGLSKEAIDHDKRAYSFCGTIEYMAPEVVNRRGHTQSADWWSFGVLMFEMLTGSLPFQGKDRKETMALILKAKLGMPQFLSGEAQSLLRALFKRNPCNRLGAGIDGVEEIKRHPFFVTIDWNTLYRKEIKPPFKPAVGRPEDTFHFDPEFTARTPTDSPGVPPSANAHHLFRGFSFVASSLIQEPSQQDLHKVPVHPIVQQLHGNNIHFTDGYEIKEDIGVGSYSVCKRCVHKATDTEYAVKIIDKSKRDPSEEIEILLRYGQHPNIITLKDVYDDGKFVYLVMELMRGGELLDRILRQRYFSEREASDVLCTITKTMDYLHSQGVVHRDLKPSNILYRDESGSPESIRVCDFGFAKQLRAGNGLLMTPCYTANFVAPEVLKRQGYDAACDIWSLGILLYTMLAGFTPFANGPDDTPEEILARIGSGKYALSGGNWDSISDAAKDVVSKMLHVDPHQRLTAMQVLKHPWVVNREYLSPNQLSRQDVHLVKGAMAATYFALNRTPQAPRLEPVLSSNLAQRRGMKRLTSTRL
structure (smiles),measurement,setting,value
CN(C)C/C=C/C(=O)Nc1ccc(C(=O)N2CCCC(Nc3ncc(Cl)c(-c4c[nH]c5ccccc45)n3)C2)cc1 (stereo unspecified),% of control,[1],100%
COCCN1CCC(c2cc(CN(C)C(=O)c3cccc(Oc4ccccc4)c3)ccn2)CC1,% activity,[2]; at 1 µM,> 95%
same,% activity,[2]; at 10 µM,> 90%
Nc1cnc(N2CCc3cc(S(=O)(=O)Nc4c(F)cc(Cl)cc4F)cc(N4CCCC4=O)c32)nc1 [TP-020n],% of control,[3],89%
CNC(=O)Nc1ccc(-c2nc(N3CC4CCC(C3)O4)c3cnn(C4CCC5(CC4)OCCO5)c3n2)cc1,% of control,[4],100%
same,% of control,[5],98%
same,% of inhibition,[6],4%
N#Cc1cccc(-c2c[nH]c3ncnc(N4CCOCC4)c23)c1,% of control,[7],90%
same,% of control,[8],89%
CC(C)(O)[C@H](F)CN1Cc2cc(NC(=O)c3cnn4cccnc34)c(N3CCOCC3)cc2C1=O,dTM,[9],-0.3 K
C=CC(=O)Nc1ccc(C(=O)Nc2[nH]nc3c2CN(C(=O)N[C@H](CN(C)C)c2ccccc2)C3(C)C)cc1,% of engagement,"[10]; Selectivity number of off-targets 0.0, Selectivity number of targets 233.0, Source Knowledge https://www.sciencedirect.com/science/article/pii/S2451945619300674?via%3Dihub",-16.3%
same,% of engagement,[10],-12.9%
Cc1cc([C@@H](C)Nc2ccccc2C(=O)O)c2nc(N3CCOCC3)cc(=O)n2c1 [AZD-6482],% of control,[11],100%
CC[C@@H]1[C@H](F)C(=O)N[C@@H]1COc1nccc2cc(C(N)=O)c(OC)cc12 [ZIMLOVISERTIB],% of inhibition,[12],6.4%
COc1cc(Nc2nc(C)cc(-c3cnn4nc(OC)ccc34)n2)cc(C(F)(F)F)c1,% of control,[13],99%
CCC(=O)N1CCN(c2ccc(-n3c(=O)ccc4cnc5ccc(-c6cnc7ccccc7c6)cc5c43)cc2C(F)(F)F)CC1,% of control,[14],80%
